Assay results from patent publication US11530221B2, “Pyrimido[4,5-d]pyrimidin-2-one derivatives as protein kinase inhibitors” (KOREA INSTITUTE OF SCIENCE AND TECHNOLOGY, priority 2019, dated 2022).
Like-named read-outs stand apart in the source and are kept apart here. Square brackets hold non-standard residues; d marks the D form. Peptide text beside a SMILES is read from it. * marks the point of attachment. X1 = Cc1ccc(Nc2ncc3c(n2)N(C)C(=O)N(c2cc(C(=O)*)ccc2C)C3)cn1; Aib = CC(C)(N)C(=O)O

What was measured:
Format in all cases: biochemical
LCK = LCK (Homo sapiens, UniProt P06239); test: IC50 inhibitory activity against LCK kinase
Procedure: (§1) IC50 values were calculated by measuring the inhibitory activity against LCK, c-Src, p38a/MAPK14, ABL1, DDR1 and FGR kinases of the compounds of the present invention.

LYN = LYN (Homo sapiens, UniProt P07948); test: IC50 inhibitory activity against LYN kinase
c-Src = c-Src (Homo sapiens, UniProt P12931); test: IC50 inhibitory activity against c-Src kinase
Procedure: as §1

ABL1 (T315I) = ABL1 (T315I) (Homo sapiens, UniProt P00519, T315I); test: IC50 inhibitory activity against ABL1 (T315I) kinase
Procedure: as §1

ABL1 = ABL1 (Homo sapiens, UniProt P00519); test: IC50 inhibitory activity against ABL1 kinase
Procedure: as §1

p38a/MAPK14 = p38a/MAPK14 (Homo sapiens, UniProt Q16539); test: IC50 inhibitory activity against p38a/MAPK14 kinase
Procedure: as §1

LYN, sequence (P07948 whole entry): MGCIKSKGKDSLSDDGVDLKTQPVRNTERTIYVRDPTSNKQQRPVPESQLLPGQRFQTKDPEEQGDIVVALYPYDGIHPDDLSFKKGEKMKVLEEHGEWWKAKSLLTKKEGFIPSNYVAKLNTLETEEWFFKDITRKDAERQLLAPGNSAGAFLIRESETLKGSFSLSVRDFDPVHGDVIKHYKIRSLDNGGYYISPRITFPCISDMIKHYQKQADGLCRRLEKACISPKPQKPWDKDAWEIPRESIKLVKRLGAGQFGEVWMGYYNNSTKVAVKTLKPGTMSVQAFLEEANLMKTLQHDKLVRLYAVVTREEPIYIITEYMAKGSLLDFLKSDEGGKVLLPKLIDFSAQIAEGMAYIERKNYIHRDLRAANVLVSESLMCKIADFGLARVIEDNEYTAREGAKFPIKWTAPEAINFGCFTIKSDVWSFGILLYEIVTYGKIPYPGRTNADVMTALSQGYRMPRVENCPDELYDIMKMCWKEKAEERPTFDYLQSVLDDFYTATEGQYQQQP
LCK, sequence (P06239 whole entry): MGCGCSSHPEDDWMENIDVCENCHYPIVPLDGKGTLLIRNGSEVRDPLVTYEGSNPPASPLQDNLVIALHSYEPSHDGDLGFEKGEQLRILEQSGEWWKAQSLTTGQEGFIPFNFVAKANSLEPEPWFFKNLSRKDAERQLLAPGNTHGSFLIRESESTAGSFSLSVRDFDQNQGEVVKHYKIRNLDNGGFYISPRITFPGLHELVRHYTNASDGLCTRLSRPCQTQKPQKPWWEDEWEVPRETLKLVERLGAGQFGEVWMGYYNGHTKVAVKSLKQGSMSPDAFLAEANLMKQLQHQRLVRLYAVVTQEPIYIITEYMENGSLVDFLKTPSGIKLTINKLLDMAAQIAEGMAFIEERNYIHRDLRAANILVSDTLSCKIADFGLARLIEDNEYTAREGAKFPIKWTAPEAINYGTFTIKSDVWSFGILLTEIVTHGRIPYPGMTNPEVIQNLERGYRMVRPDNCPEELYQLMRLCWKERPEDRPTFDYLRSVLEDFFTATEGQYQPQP
c-Src, sequence (P12931 whole entry): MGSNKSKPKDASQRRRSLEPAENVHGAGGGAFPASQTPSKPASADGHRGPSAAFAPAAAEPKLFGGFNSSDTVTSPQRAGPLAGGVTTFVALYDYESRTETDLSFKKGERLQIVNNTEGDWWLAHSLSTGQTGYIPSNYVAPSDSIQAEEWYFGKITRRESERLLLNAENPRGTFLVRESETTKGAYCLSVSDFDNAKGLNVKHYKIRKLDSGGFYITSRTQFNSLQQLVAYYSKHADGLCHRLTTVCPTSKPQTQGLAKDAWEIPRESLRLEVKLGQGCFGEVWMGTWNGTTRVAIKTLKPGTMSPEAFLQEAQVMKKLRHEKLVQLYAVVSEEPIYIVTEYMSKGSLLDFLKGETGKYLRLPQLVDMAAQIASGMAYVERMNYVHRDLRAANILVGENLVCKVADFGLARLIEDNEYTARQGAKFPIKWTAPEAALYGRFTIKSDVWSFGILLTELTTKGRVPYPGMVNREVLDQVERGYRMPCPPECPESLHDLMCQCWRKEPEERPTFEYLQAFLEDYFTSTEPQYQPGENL
p38a/MAPK14, sequence (Q16539 whole entry): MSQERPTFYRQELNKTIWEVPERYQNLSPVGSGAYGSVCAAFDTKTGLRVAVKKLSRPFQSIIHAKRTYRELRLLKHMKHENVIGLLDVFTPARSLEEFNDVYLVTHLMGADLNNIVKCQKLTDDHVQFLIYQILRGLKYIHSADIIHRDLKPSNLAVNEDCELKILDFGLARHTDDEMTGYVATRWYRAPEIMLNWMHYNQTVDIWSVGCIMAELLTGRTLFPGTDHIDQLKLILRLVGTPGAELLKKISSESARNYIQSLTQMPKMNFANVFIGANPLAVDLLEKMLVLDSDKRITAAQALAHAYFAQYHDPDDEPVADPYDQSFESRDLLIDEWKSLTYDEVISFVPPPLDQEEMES

SMILES	IC50 (LCK; read-out: LCK IC50) [nM]	IC50 (LYN) [nM]	IC50 (c-Src; read-out: c-Src IC50) [nM]	IC50 (LCK) [nM]	IC50 (ABL1 (T315I)) [nM]	IC50 (ABL1) [nM]	IC50 (p38a/MAPK14) [nM]	IC50 (c-Src) [nM]	IC50 (ABL1 (T315I); read-out: ABL1 (T315I) IC50) [nM]	IC50 (ABL1; read-out: ABL1 IC50) [nM]	IC50 (p38a/MAPK14; read-out: p38a/MAPK14 IC50) [nM]
CC1=N[C@H](Cc2ccccc2)C(=O)Nc2cc(C(=O)Nc3ccc(C)c(N4Cc5cnc(Nc6ccc(C)nc6)nc5N(C)C4=O)c3)ccc21 [Example 35, (R)-3-benzyl-5-methyl-N-(4-methyl-3-(1-methyl-7-((6-methylpyridin-3-yl)amino)-2-oxo-1,4-dihydropyrimido[4,5-d]pyrimidin-3(2H)-yl)phenyl)-2-oxo-2,3-dihydro-1H-benzo[e][1,4]diazepine-8-carboxamide]	1 to 200	1 to 200	1 to 200	–	–	–	–	–	–	–	–
C=CCN1C(=O)[C@H](CC(C)C)N=C(c2ccccc2)c2ccc(C(=O)Nc3ccc(C)c(N4Cc5cnc(Nc6ccc(C)nc6)nc5N(C)C4=O)c3)cc21 [Example 38, (S)-1-allyl-3-isobutyl-N-(4-methyl-3-(1-methyl-7-((6-methylpyridin-3-yl)amino)-2-oxo-1,4-dihydropyrimido[4,5-d]pyrimidin-3(2H)-yl)phenyl)-2-oxo-5-phenyl-2,3-dihydro-1H-benzo[e][1,4]diazepine-8-carboxamide]	1 to 200	1 to 200	200 to 400	–	–	–	–	–	–	–	–
Cc1ccc(Nc2ncc3c(n2)N(C)C(=O)N(c2cc(NC(=O)c4ccc5c(c4)N(C)C(=O)[C@H](CC(C)C)N=C5c4ccccc4)ccc2C)C3)cn1 [Example 37, (S)-3-isobutyl-1-methyl-N-(4-methyl-3-(1-methyl-7-((6-methylpyridin-3-yl)amino)-2-oxo-1,4-dihydropyrimido[4,5-d]pyrimidin-3(2H)-yl)phenyl)-2-oxo-5-phenyl-2,3-dihydro-1H-benzo[e][1,4]diazepine-8-carboxamide]	1 to 200	1 to 200	1 to 200	–	–	–	–	–	–	–	–
Cc1ccc(Nc2ncc3c(n2)N(C)C(=O)N(c2cc(C(=O)N[C@H](C(=O)N4CCC[C@@H]4C(=O)NC(C)(C)C(=O)N[C@@H](CC(C)C)C(=O)N(C)C)C(C)C)ccc2C)C3)cn1 [Example 2, (R)—N-(1-(((S)-1-(dimethylamino)-4-methyl-1-oxopentan-2-yl)amino)-2-methyl-1-oxopropan-2-yl)-1-((4-methyl-3-(1-methyl-7-((6-methylpyridin-3-yl)amino)-2-oxo-1,4-dihydropyrimido[4,5-d]pyrimidin-3(2H)-yl)benzoyl)-L-valyl)pyrrolidine-2-carboxamide] (X1-V[dP][Aib]L-NMe2)	–	–	–	1 to 200	> 600	200 to 400	> 600	200 to 400	–	–	–
CC1=N[C@@H](Cc2ccccc2)C(=O)Nc2cc(C(=O)Nc3ccc(C)c(N4Cc5cnc(Nc6ccc(C)nc6)nc5N(C)C4=O)c3)ccc21 [Example 34, (S)-3-benzyl-5-methyl-N-(4-methyl-3-(1-methyl-7-((6-methylpyridin-3-yl)amino)-2-oxo-1,4-dihydropyrimido[4,5-d]pyrimidin-3(2H)-yl)phenyl)-2-oxo-2,3-dihydro-1H-benzo[e][1,4]diazepine-8-carboxamide]	1 to 200	1 to 200	1 to 200	–	–	–	–	–	–	–	–
Cc1ccc(Nc2ncc3c(n2)N(C)C(=O)N(c2cc(NC(=O)c4ccc5c(c4)N(Cc4ccccc4)C(=O)[C@H](C)N=C5c4ccccc4)ccc2C)C3)cn1 [Example 31, (S)-1-benzyl-3-methyl-N-(4-methyl-3-(1-methyl-7-((6-methylpyridin-3-yl)amino)-2-oxo-1,4-dihydropyrimido[4,5-d]pyrimidin-3(2H)-yl)phenyl)-2-oxo-5-phenyl-2,3-dihydro-1H-benzo[e][1,4]diazepine-8-carboxamide]	1 to 200	1 to 200	1 to 200	–	–	–	–	–	> 600	1 to 200	1 to 200
Cc1ccc(Nc2ncc3c(n2)N(C)C(=O)N(c2cc(NC(=O)c4ccc5c(c4)NC(=O)[C@H](C)N=C5c4ccccc4)ccc2C)C3)cn1 [Example 30, (S)-3-methyl-N-(4-methyl-3-(1-methyl-7-((6-methylpyridin-3-yl)amino)-2-oxo-1,4-dihydropyrimido[4,5-d]pyrimidin-3(2H)-yl)phenyl)-2-oxo-5-phenyl-2,3-dihydro-1H-benzo[e][1,4]diazepine-8-carboxamide]	1 to 200	–	1 to 200	–	–	–	–	–	> 600	1 to 200	1 to 200
Cc1ccc(Nc2ncc3c(n2)N(C)C(=O)N(c2cc(NC(=O)c4ccc5c(c4)NC(=O)[C@H](Cc4ccccc4)N=C5c4ccccc4)ccc2C)C3)cn1 [Example 26, (S)-3-benzyl-N-(4-methyl-3-(1-methyl-7-((6-methylpyridin-3-yl)amino)-2-oxo-1,4-dihydropyrimido[4,5-d]pyrimidin-3(2H)-yl)phenyl)-2-oxo-5-phenyl-2,3-dihydro-1H-benzo[e][1,4]diazepine-8-carboxamide]	1 to 200	–	1 to 200	–	–	–	–	–	> 600	1 to 200	> 600
CC[C@@H](C)[C@H]1N=C(c2ccccc2)c2ccc(C(=O)Nc3ccc(C)c(N4Cc5cnc(Nc6ccc(C)nc6)nc5N(C)C4=O)c3)cc2NC1=O [Example 32, (R)-3-((R)-sec-butyl)-N-(4-methyl-3-(1-methyl-7-((6-methylpyridin-3-yl)amino)-2-oxo-1,4-dihydropyrimido[4,5-d]pyrimidin-3(2H)-yl)phenyl)-2-oxo-5-phenyl-2,3-dihydro-1H-benzo[e][1,4]diazepine-8-carboxamide]	1 to 200	–	1 to 200	–	–	–	–	–	> 600	1 to 200	200 to 400
